Data as given in patent US20070003608A1, “Compounds, compositions and methods for the treatment of viral infections and other medical disorders” (priority 2005, published 2007).
Like-named read-outs stand apart in the source and are kept apart here.

Columns and labels:
[1] = test system: Human Cytomegalovirus (HCMV); assay: HCMV antiviral assay, HCMV DNA quantified by DNA hybridization in MRC-5 cells; type: cell-based
[2] = Cytotoxicity in vitro in MRC-5 human lung fibroblast cells, visual estimate of 50% reduction in cell number; conditions: human, MRC-5 human lung fibroblast cells
HIV-1 [3] = conditions: cited from earlier work
HT4-6C Cells = conditions: Table 6; cited from earlier work
Variola Major, Yamada = conditions: cited from earlier work
Vaccinia = conditions: Vero cells, 1000 pfu/well, neutral red; average of 3 determinations; cited from earlier work
Vero cells = conditions: 50% cytotoxic concentration in Vero cells; cited from earlier work
[4] = Quantitative whole body autoradiograph after oral [2-14C] HDP-cidofovir; conditions: mouse, 4 hours after a 5 mg/kg oral dose of [2-14C] HDP-cidofovir
Cowpox = conditions: cited from earlier work
Variola Minor Garcia = conditions: cited from earlier work
[5] = test system: Variola Major, Bangladesh; conditions: cited from earlier work
[6] = test system: human lung fibroblast cells (MRC-5); assay: Cytotoxicity in vitro in MRC-5 human lung fibroblast cells, visual estimate of 50% reduction in cell number; conditions: MRC-5 cells, 5 days; Table 2
HIV-1 [7] = assay: HIV-1 plaque reduction assay in HT4-6C cells; type: cell-based; conditions: HIV-1 plaque reduction EC50 compared with adefovir
HSV-1 = conditions: Human HSV replication in MRC-5 human lung fibroblasts, DNA reduction, about 24 h; average of two experiments (HDP-CDV single determination in duplicate); cited from earlier work
[8] = test system: human lung fibroblast cells (MRC-5); conditions: Table 7; cited from earlier work
[9] = Human CMV replication in MRC-5 human lung fibroblasts, DNA reduction, average of 3 to 6 determinations (ADV single replication in duplicate), read-out: EC50

Question: For `CCCCCCCCCCCCCCCCCCOCCOP(=O)(O)COC(CO)Cn1ccc(N)nc1=O` (stereo not drawn) [1-O-octadecylpropanediol-2-CDV, 1-O-octadecylethanediol-2-cidofovir], which EC50 [1, 9] is on record?
Answer: The EC50 was 40 nM.

Question: Which CC50 at 5 days [2] does the source give for `Nc1ncnc2c1ncn2CCOCP(=O)(O)O` [Adefovir, adefovir, reference compound] here?
Answer: Its CC50 at 5 days is > 1000 µM.

Question: What about the EC50 (HIV-1 [3]; HIV replication in HT4-6C cells, plaque reduction, average of 4 experiments, Table 6, read-out: EC50) of the same molecule?
Answer: Its EC50 is 8.2 µM.

Question: And the EC50 (HIV-1 [3]; HIV-1 LAI infected HT4-6C cells, 3 days, preliminary experiments, Table 5, read-out: EC50, μM, in HIV-1 plaque reduction assay)?
Answer: Its EC50 is 16 µM.

Question: What about the CC50 (HT4-6C Cells) of the same molecule?
Answer: The CC50 was > 1000 µM.

Question: And the EC50 ([1]; Human betaherpesvirus 5, MRC5)?
Answer: The EC50 was 210 nM.

Question: What about the EC50 ([1]; Human betaherpesvirus 5, MRC5, 120 h, MRC-5 cells, 5 days, DNA hybridization, preliminary experiments, second TABLE 1, read-out: HCMV EC50) of the same molecule?
Answer: Its EC50 is 55000 nM.

Question: For `CCCCCCCCCCCCCCCCOCCCOP(=O)(O)COC(CO)Cn1ccc(N)nc1=O` (stereo not drawn) [HDP-CDV, hexadecyloxypropyl-cidofovir], which CC50 at 5 days [2] is on record?
Answer: Its CC50 at 5 days is 10 µM.

Question: What about the EC50 (Variola Major, Yamada) of the same molecule?
Answer: Its EC50 is 0.0015 µM.

Question: And the EC50 (Vaccinia)?
Answer: The EC50 was < 0.03 µM.

Question: What about the CC50 (Vero cells) of the same molecule?
Answer: The CC50 was > 0.1 µM.

Question: What about the “tissue distribution of drug” value [4] of the same molecule?
Answer: Its value is “distributed primarily in the GI tract as well as organs including the lung, heart, liver, and kidney”.

Question: What about the EC50 (Cowpox) of the same molecule?
Answer: The EC50 was < 0.03 µM.

Question: And the EC50 (Variola Minor Garcia)?
Answer: The EC50 was 0.0006 µM.

Question: What about the EC50 ([1]; Human betaherpesvirus 5, MRC5, Human CMV replication in MRC-5 human lung fibroblasts, DNA reduction, average of 3 to 6 determinations (ADV single replication in duplicate), read-out: EC50) of the same molecule?
Answer: The EC50 was 0.002 nM.

Question: What about the EC50 [5] of the same molecule?
Answer: The EC50 was 0.0015 µM.

Question: Which EC50 [1, 9] does the source give for `CCCCCCCCCCCCCCCCCCOCCOP1(=O)COC(Cn2ccc(N)nc2=O)CO1` (stereo not drawn) [1-O-octadecylpropanediol-2-cCDV, 1-O-octadecylethanediol-2-cyclic cidofovir] here?
Answer: Its EC50 is 55000 nM.

Question: Which CC50 [6] does the source give for `CCCCCCCCCCCCCCCCOP1(=O)CO[C@@H](Cn2ccc(N)nc2=O)CO1` (stereo partly drawn) [Hexadecyl-cCDV, hexadecyl cyclic cidofovir] here?
Answer: Its CC50 is 6.5 µM.

Question: What about the EC50 [1, 9] of the same molecule?
Answer: The EC50 was 100 nM.

Question: For `CCCCCCCCCCCCCCCCOCCCOP(=O)(O)COCCn1cnc2c(N)ncnc21` [HDP-ADV, 1-O-hexadecylpropanediol-3-adefovir], which “logs more active than adefovir itself” value (HIV-1 [7]) is on record?
Answer: Its value is “more than 5 logs”.

Question: What does the source list for `CCCCCCCCCCCCCCCCCCOCCCOP(=O)(O)COC(CO)Cn1ccc(N)nc1=O` (stereo not drawn) [1-O-octadecylpropanediol-3-CDV, 1-O-octadecylpropanediol-3-cidofovir]?
Answer: CC50 [6]: 32 µM; EC50 (HSV-1): 0.003 µM; CC50 [8]: 32 µM; EC50 [1, 9]: 0.03 nM
